# Experiments:
# [1] = system: IL-17A-induced G-CSF production in human normal keratinocyte (NHK); assay: NHK Assay: IL-17A-induced G-CSF production in human normal keratinocytes; assay type: cell-based; conditions: adult normal human keratinocytes, IL-17A 5 ng/mL, 24 h, simple average if tested more than once
# Method in brief: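 IL-17A (5 ng/mL final) was pre-incubated 1 h at rt with titrated compound and then added to adult normal human keratinocytes (5% FBS, 0.2% DMSO) for 24 h at 37° C. Supernatant G-CSF was measured by HTRF against a standard curve to derive IC50. Viability was checked by CellTiter-Glo.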
# [2] = biological target: IL-17A(FLAG-Tagged): IL-17RA(His-Tagged) (Homo sapiens, UniProt Q16552, K93Q); assay: IL-17A(FLAG-Tagged): IL-17RA(His-Tagged) Binding Disruption Eu-HTRF Assay; conditions: IL-17A/IL-17RA binding disruption, simple average if tested more than once
# Chain of UniProt Q16552 (Q16552 with tags, fused parts or gaps K93Q): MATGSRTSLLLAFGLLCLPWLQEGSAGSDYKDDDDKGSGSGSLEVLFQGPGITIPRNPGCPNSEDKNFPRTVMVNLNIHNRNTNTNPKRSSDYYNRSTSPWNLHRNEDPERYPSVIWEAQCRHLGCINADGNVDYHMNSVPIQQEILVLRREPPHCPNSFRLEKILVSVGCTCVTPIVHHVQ
# Method in brief: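 IC50 comes from a one-site competition fit of the HTRF 665/620 nm ratio. Compound dilutions (2-fold, 22 points) were held 1 h rt with FLAG-tagged IL-17A dimer, then His-tagged IL-17RA plus Eu-cryptate anti-FLAG and D2 anti-His antibodies were added for 2 h rt.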
SMILES,IC50 [1] [nM],IC50 [2] [nM],"IC50 ([1]; Homo sapiens, Keratinocyte) [nM]"
"CC(C)n1nccc1C(=O)N[C@H](c1cn2ncc([C@H](NC(=O)CC(C)C(F)(F)F)C3CC3)cc2n1)C1CCC(F)(F)CC1 (single isomer, unassigned) [Example 122, N—((S)-(7-((R)-Cyclopropyl((S*)-4,4,4-trifluoro-3-methylbutanamido)methyl)imidazo[1,2-b]pyridazin-2-yl)(4,4-difluorocyclohexyl)methyl)-1-isopropyl-1H-pyrazole-5-carboxamide]",220,110,–
"Cc1nocc1C(=O)N[C@H](c1cn2ncc([C@H](NC(=O)CC(C)C(F)(F)F)C3CC3)cc2n1)C1CCC(F)(F)CC1 (single isomer, unassigned) [Example 123, N—((S)-(7-((R)-Cyclopropyl((R*)-4,4,4-trifluoro-3-methylbutanamido)methyl)imidazo[1,2-b]pyridazin-2-yl)(4,4-difluorocyclohexyl)methyl)-3-methylisoxazole-4-carboxamide]",130,55,–
"Cc1nocc1C(=O)N[C@H](c1cn2ncc([C@H](NC(=O)CC(C)C(F)(F)F)C3CC3)cc2n1)C1CCC(F)(F)CC1 (single isomer, unassigned) [Example 124, N—((S)-(7-((R)-Cyclopropyl((S*)-4,4,4-trifluoro-3-methylbutanamido)methyl)imidazo[1,2-b]pyridazin-2-yl)(4,4-difluorocyclohexyl)methyl)-3-methylisoxazole-4-carboxamide]",690,110,–
"CC(CC(=O)N[C@@H](c1cnn2cc([C@@H](NC(=O)c3conc3C3CC3)C3CCC(F)(F)CC3)nc2c1)C1CC1)C(F)(F)F (single isomer, unassigned) [Example 128, 3-Cyclopropyl-N—((S)-(7-((R)-cyclopropyl((R*)-4,4,4-trifluoro-3-methylbutanamido)methyl)imidazo[1,2-b]pyridazin-2-yl)(4,4-difluorocyclohexyl)methyl)isoxazole-4-carboxamide]",96,32,–
"CC(CC(=O)N[C@@H](c1cnn2cc([C@@H](NC(=O)c3conc3C3CC3)C3CCC(F)(F)CC3)nc2c1)C1CC1)C(F)(F)F (single isomer, unassigned) [Example 129, 3-Cyclopropyl-N—((S)-(7-((R)-cyclopropyl((S*)-4,4,4-trifluoro-3-methylbutanamido)methyl)imidazo[1,2-b]pyridazin-2-yl)(4,4-difluorocyclohexyl)methyl)isoxazole-4-carboxamide]",250,51,–
"CC(C)n1nccc1C(=O)N[C@H](c1cn2ncc(C(NC(=O)CCC(F)F)C3CC3)cc2n1)C1CCC(F)(F)CC1 (single isomer, unassigned) [Example 135, N-((1S)-(7-((R*)-Cyclopropyl(4,4-difluorobutanamido)methyl)imidazo[1,2-b]pyridazin-2-yl)(4,4-difluorocyclohexyl)methyl)-1-isopropyl-1H-pyrazole-5-carboxamide]",–,110,230
"CC(C)n1nccc1C(=O)N[C@H](c1cn2ncc(C(NC(=O)CC(C)(C)O)C3CC3)cc2n1)C1CCC(F)(F)CC1 (single isomer, unassigned) [Example 136, N—((S)-(7-((R*)-Cyclopropyl(3-hydroxy-3-methylbutanamido)methyl)imidazo[1,2-b]pyridazin-2-yl)(4,4-difluorocyclohexyl)methyl)-1-isopropyl-1H-pyrazole-5-carboxamide]",790,400,–
"CC(C)n1nccc1C(=O)N[C@H](c1cn2ncc(C(NC(=O)CC(C)(C)O)C3CC3)cc2n1)C1CCC(F)(F)CC1 (single isomer, unassigned) [Example 137, N—((S)-(7-((S*)-Cyclopropyl(3-hydroxy-3-methylbutanamido)methyl)imidazo[1,2-b]pyridazin-2-yl)(4,4-difluorocyclohexyl)methyl)-1-isopropyl-1H-pyrazole-5-carboxamide]",> 20000,14000,–
"CC(C)n1nccc1C(=O)N[C@H](c1cn2ncc([C@@H](NC(=O)C[C@H]3CC3(F)F)C3CC3)cc2n1)C1CCC(F)(F)CC1 (single isomer, unassigned) [Example 138]",–,780,1300
"CC(C)n1nccc1C(=O)N[C@H](c1cn2ncc([C@@H](NC(=O)C[C@@H]3CC3(F)F)C3CC3)cc2n1)C1CCC(F)(F)CC1 (single isomer, unassigned) [Example 139]",–,730,690
"CC(C)n1nccc1C(=O)N[C@H](c1cn2ncc([C@H](NC(=O)C[C@H]3CC3(F)F)C3CC3)cc2n1)C1CCC(F)(F)CC1 (single isomer, unassigned) [Example 140]",–,70,89
"CC(C)n1nccc1C(=O)N[C@H](c1cn2ncc([C@H](NC(=O)C[C@@H]3CC3(F)F)C3CC3)cc2n1)C1CCC(F)(F)CC1 (single isomer, unassigned) [Example 141]",–,130,200
"CC(C)C(NC(=O)CCC(F)(F)F)c1cnn2cc([C@@H](NC(=O)c3ccnn3C(C)C)C3CCC(F)(F)CC3)nc2c1 (single isomer, unassigned) [Example 154, N—((S)-(4,4-Difluorocyclohexyl)(7-((R*)-2-methyl-1-(4,4,4-trifluorobutanamido)propyl)imidazo[1,2-b]pyridazin-2-yl)methyl)-1-isopropyl-1H-pyrazole-5-carboxamide]",640,430,–
"CC(C)C(NC(=O)CCC(F)(F)F)c1cnn2cc([C@@H](NC(=O)c3ccnn3C(C)C)C3CCC(F)(F)CC3)nc2c1 (single isomer, unassigned) [Example 155, N—((S)-(4,4-Difluorocyclohexyl)(7-((S*)-2-methyl-1-(4,4,4-trifluorobutanamido)propyl)imidazo[1,2-b]pyridazin-2-yl)methyl)-1-isopropyl-1H-pyrazole-5-carboxamide]",53,130,–
"Cc1nonc1C(=O)N[C@H](c1cn2ncc([C@H](NC(=O)CC(C)C(F)(F)F)C3CC3)cc2n1)C1CCC(F)(F)CC1 (single isomer, unassigned) [Example 243, N—((S)-(7-((R)-Cyclopropyl((R*)-4,4,4-trifluoro-3-methylbutanamido)methyl)imidazo[1,2-b]pyridazin-2-yl)(4,4-difluorocyclohexyl)methyl)-4-methyl-1,2,5-oxadiazole-3-carboxamide]",–,89,270
"CC(C)n1nccc1C(=O)N[C@H](c1cn2ncc([C@H](NC(=O)C[C@H]3C[C@@H](F)C3)C3CC3)cc2n1)C1CCC(F)(F)CC1 (single isomer, unassigned) [Example 257]",–,110,120
"CC(C)n1nccc1C(=O)N[C@H](c1cn2ncc([C@H](NC(=O)C[C@H]3C[C@H](F)C3)C3CC3)cc2n1)C1CCC(F)(F)CC1 (single isomer, unassigned) [Example 258]",–,130,46
"Cc1nonc1C(=O)N[C@H](c1cn2ncc([C@H](NC(=O)CC(C)C(F)F)C3CC3)cc2n1)C1CCC(F)(F)CC1 (single isomer, unassigned) [Example 264, N—((S)-(7-((R)-Cyclopropyl((R*)-4,4-difluoro-3-methylbutanamido)methyl)imidazo[1,2-b]pyridazin-2-yl)(4,4-difluorocyclohexyl)methyl)-4-methyl-1,2,5-oxadiazole-3-carboxamide]",350,48,–
"Cc1nonc1C(=O)N[C@H](c1cn2ncc([C@H](NC(=O)CC(C)C(F)F)C3CC3)cc2n1)C1CCC(F)(F)CC1 (single isomer, unassigned) [Example 265, N—((S)-(7-((R)-Cyclopropyl((S*)-4,4-difluoro-3-methylbutanamido)methyl)imidazo[1,2-b]pyridazin-2-yl)(4,4-difluorocyclohexyl)methyl)-4-methyl-1,2,5-oxadiazole-3-carboxamide]",1100,210,–
"Cc1nonc1C(=O)N[C@H](c1cn2ncc([C@H](NC(=O)C[C@H]3C[C@H](F)C3)C3CC3)cc2n1)C1CCC(F)(F)CC1 (single isomer, unassigned) [Example 266]",–,56,290
"Cc1nonc1C(=O)N[C@H](c1cn2ncc([C@H](NC(=O)C[C@H]3C[C@@H](F)C3)C3CC3)cc2n1)C1CCC(F)(F)CC1 (single isomer, unassigned) [Example 267]",–,87,350
"CC(C)n1nccc1C(=O)N[C@H](c1cn2ncc([C@H](NC(=O)CCC3CC3(F)F)C3CC3)cc2n1)C1CCC(F)(F)CC1 (single isomer, unassigned) [Example 270, N—((S)-(7-((R)-Cyclopropyl(3-((R*)-2,2-difluorocyclopropyl)propanamido)methyl)imidazo[1,2-b]pyridazin-2-yl)(4,4-difluorocyclohexyl)methyl)-1-isopropyl-1H-pyrazole-5-carboxamide]",–,150,38
"CC(C)n1nccc1C(=O)N[C@H](c1cn2ncc([C@H](NC(=O)CCC3CC3(F)F)C3CC3)cc2n1)C1CCC(F)(F)CC1 (single isomer, unassigned) [Example 271, N—((S)-(7-((R)-Cyclopropyl(3-((S*)-2,2-difluorocyclopropyl)propanamido)methyl)imidazo[1,2-b]pyridazin-2-yl)(4,4-difluorocyclohexyl)methyl)-1-isopropyl-1H-pyrazole-5-carboxamide]",67,140,–
